Results as given in patent publication US6221906A, “Platinum complex conjugated to cyclotriphosphazene, its preparation, and anticancer agent comprising the same” (Korea Institute of Science and Technology, priority 1999, dated 2001).

Tests used:
[1] = system: leukemia L1210 cells; test: anticancer activity test against mouse leukemia L1210 cells implanted in BDF1 mice; type: in vivo; conditions: intra-peritoneal, days 1, 5 and 9; for Number of survival after 60 days: of 8 mice
[2] = literature value; cited from earlier work
[3] = system: ICR mouse; test: pilot acute toxicity test, single tail vein injection (LD50); type: in vivo; conditions: for Death rate: 2 animals; for deaths on day 0 after administration: of 2 animals
Description: A pilot acute toxicity test was performed for the compound (KI-60606) described in Example 8 of the present invention by intravenous injection.
(2) carrier: physiological saline for injection
(1) animal model: ICR mouse
(2) age of the animal: 4 weeks old when delivered, 5 weeks old when the drug was administered
(3) sex and number of animals: 12 males and 12 females
(4) breeding condition: temperature: 23 3C. relative humidity: 50 10% light intensity: 150-300 Lux
3. Number and method of administration: single tail vein injection
5. Observation categories: general symptoms, symptoms of dead animals, body weight up to seventh day after administration, autopsy finding.

[4] = system: Hartley guinea pigs; test: guinea pig anaphylaxis test; type: in vivo
Description: […] The systemic symptoms were observed 30 minutes after the injection. […] However, only 2 animals administered with oligomeric platinum complex of the present invention (KI 60606: The compound in Example 8 of the present invention) had severe symptoms but none died.

[5] = male or female mice, 500 mg/kg or more
[6] = antigen 1 mg/kg, induced antigen 5 mg/kg, 4 animals
[7] = antigen 5 mg/kg, induced antigen 5 mg/kg, 4 animals

O=C1[O][Pt-2]2([NH2+]C3CCCCC3[NH2+]2)[O]C(=O)C1NP1(NC2C(=O)[O][Pt-2]3([NH2+]C4CCCCC4[NH2+]3)[O]C2=O)=NP(NC2C(=O)[O][Pt-2]3([NH2+]C4CCCCC4[NH2+]3)[O]C2=O)(NC2C(=O)[O][Pt-2]3([NH2+]C4CCCCC4[NH2+]3)[O]C2=O)=NP(NC2C(=O)[O][Pt-2]3([NH2+]C4CCCCC4[NH2+]3)[O]C2=O)(NC2C(=O)[O][Pt-2]3([NH2+]C4CCCCC4[NH2+]3)[O]C2=O)=N1 (racemic) [Example 16, [NP(Am·Pt(dach)2]3]
Increased life span (ILS) ([1]; 30 mg/kg): 222.1% | Increased life span (ILS) ([1]; 60 mg/kg): Toxic

N.N.O=C([O-])C1(C(=O)[O-])CCC1.[Pt+2] [Carboplatin, cis-(NH3)2 Pt(CBDCA), reference compound]
Increased life span (ILS) ([1]; 40 mg/kg): 80% | LD50 [2]: 180 mg/kg

N.N.[Cl][Pt][Cl] [Cisplatin, cis-(NH3)2 PtCl2, reference compound]
Increased life span (ILS) ([1]; 4 mg/kg): 60%

O=C1CC(NP2(NC3CC(=O)[O][Pt-2]4([NH2+]C5CCCCC5[NH2+]4)[O]C3=O)=NP(NC3CC(=O)[O][Pt-2]4([NH2+]C5CCCCC5[NH2+]4)[O]C3=O)(NC3CC(=O)[O][Pt-2]4([NH2+]C5CCCCC5[NH2+]4)[O]C3=O)=NP(NC3CC(=O)[O][Pt-2]4([NH2+]C5CCCCC5[NH2+]4)[O]C3=O)(NC3CC(=O)[O][Pt-2]4([NH2+]C5CCCCC5[NH2+]4)[O]C3=O)=N2)C(=O)[O][Pt-2]2([NH2+]C3CCCCC3[NH2+]2)[O]1 [Example 1, [NP(L-Asp·Pt(dach))2]3]
Increased life span (ILS) ([1]; 40 mg/kg): > 243.8% | Number of survival after 60 days ([1]; 40 mg/kg): 1/8 | Increased life span (ILS) ([1]; 60 mg/kg): > 448.8% | Number of survival after 60 days ([1]; 60 mg/kg): 4/8

CC1(C)C[NH2+][Pt-2]2([NH2+]C1)[O]C(=O)C[C@H](NP1(N[C@H]3CC(=O)[O][Pt-2]4([NH2+]CC(C)(C)C[NH2+]4)[O]C3=O)=NP(N[C@H]3CC(=O)[O][Pt-2]4([NH2+]CC(C)(C)C[NH2+]4)[O]C3=O)(N[C@H]3CC(=O)[O][Pt-2]4([NH2+]CC(C)(C)C[NH2+]4)[O]C3=O)=NP(N[C@H]3CC(=O)[O][Pt-2]4([NH2+]CC(C)(C)C[NH2+]4)[O]C3=O)(N[C@H]3CC(=O)[O][Pt-2]4([NH2+]CC(C)(C)C[NH2+]4)[O]C3=O)=N1)C(=O)[O]2 [Example 2, [NP(L-Asp·Pt(dmpda))2]3]
Increased life span (ILS) ([1]; 30 mg/kg): 165.0% | Increased life span (ILS) ([1]; 60 mg/kg): 147.9%

O=C1C[C@H](NP2(N[C@H]3CC(=O)[O][Pt-2]4([NH2+]CC[NH2+]4)[O]C3=O)=NP(N[C@H]3CC(=O)[O][Pt-2]4([NH2+]CC[NH2+]4)[O]C3=O)(N[C@H]3CC(=O)[O][Pt-2]4([NH2+]CC[NH2+]4)[O]C3=O)=NP(N[C@H]3CC(=O)[O][Pt-2]4([NH2+]CC[NH2+]4)[O]C3=O)(N[C@H]3CC(=O)[O][Pt-2]4([NH2+]CC[NH2+]4)[O]C3=O)=N2)C(=O)[O][Pt-2]2([NH2+]CC[NH2+]2)[O]1 [Example 4, [NP(L-Asp·Pt(en))2]3]
Increased life span (ILS) ([1]; 30 mg/kg): 250.9% | Increased life span (ILS) ([1]; 60 mg/kg): Toxic

O=C1CCC(NP2(NC3CCC(=O)[O][Pt-2]4([NH2+]C5CCCCC5[NH2+]4)[O]C3=O)=NP(NC3CCC(=O)[O][Pt-2]4([NH2+]C5CCCCC5[NH2+]4)[O]C3=O)(NC3CCC(=O)[O][Pt-2]4([NH2+]C5CCCCC5[NH2+]4)[O]C3=O)=NP(NC3CCC(=O)[O][Pt-2]4([NH2+]C5CCCCC5[NH2+]4)[O]C3=O)(NC3CCC(=O)[O][Pt-2]4([NH2+]C5CCCCC5[NH2+]4)[O]C3=O)=N2)C(=O)[O][Pt-2]2([NH2+]C3CCCCC3[NH2+]2)[O]1 [Example 8, [NP(L-Glu·Pt(dach))2]3]
Main symptoms ([3]; 62.5-2000 mg/kg, single intravenous injection, ICR mice): prone positioning, gait disturbance, dyspnea and decrease in body weight | General symptoms of dead mice ([3]; 125 or 250 mg/kg): prone positioning and drooling | Estimated LD50 value ([3]; female ICR mice, single intravenous injection): 125 to 250 mg/kg | Death rate ([3]; female, 62.5 mg/kg): 0% | number of mice with decrease in body weight ([3]; female, 125 mg/kg): 2 | Death rate ([3]; female, 125 mg/kg): 0% | Death rate ([3]; female, 250 mg/kg): 100% | deaths on day 0 after administration ([3]; female, 250 mg/kg): 2 | Death rate ([3]; female, 500 mg/kg): 100% | deaths on day 0 after administration ([3]; female, 500 mg/kg): 2 | Death rate ([3]; female, 1000 mg/kg): 100% | deaths on day 0 after administration ([3]; female, 1000 mg/kg): 2 | Death rate ([3]; female, 2000 mg/kg): 100% | deaths on day 0 after administration ([3]; female, 2000 mg/kg): 2 | Estimated LD50 value ([3]; male ICR mice, single intravenous injection): 125 mg/kg | General symptoms [3, 5]: prone positioning, gait disturbance and dyspnea | time of death after injection [3, 5]: 10 to 20 s | number of mice with decrease in body weight ([3]; male, 62.5 mg/kg): 1 | Death rate ([3]; male, 62.5 mg/kg): 0% | Death rate ([3]; male, 125 mg/kg): 50% | deaths on day 0 after administration ([3]; male, 125 mg/kg): 1 | Death rate ([3]; male, 250 mg/kg): 100% | deaths on day 0 after administration ([3]; male, 250 mg/kg): 2 | Death rate ([3]; male, 500 mg/kg): 100% | deaths on day 0 after administration ([3]; male, 500 mg/kg): 2 | Death rate ([3]; male, 1000 mg/kg): 100% | deaths on day 0 after administration ([3]; male, 1000 mg/kg): 2 | Death rate ([3]; male, 2000 mg/kg): 100% | deaths on day 0 after administration ([3]; male, 2000 mg/kg): 2 | autopsy finding ([3]; mice that died immediately and mice that survived): No particular autopsy finding was observed | General symptoms of live animals ([3]; one day after injection): did not have any particular symptoms | Increased life span (ILS) ([1]; 60 mg/kg): > 400% | Number of survival after 60 days ([1]; 60 mg/kg): 3/8 | Increased life span (ILS) ([1]; 80 mg/kg): > 402.8% | Number of survival after 60 days ([1]; 80 mg/kg): 3/8 | death in anaphylaxis test ([4]; all dose groups): none died | number of animals with severe symptoms ([4]; all dose groups): 2 | number of animals with symptom [++] (severe) [4, 6]: 2 | number of animals with symptom [+] (moderate) [4, 6]: 1 | number of animals with symptom [±] (mild) [4, 6]: 1 | number of animals with symptom [+] (moderate) [4, 7]: 1 | number of animals with symptom [-] (asymptomatic) [4, 7]: 3 | antigenicity compared with physiological saline ([4]; compared with physiological saline solution): antigenicity was even less

O=C1CC[C@H](NP2(N[C@H]3CCC(=O)[O][Pt-2]4([NH2+]CC[NH2+]4)[O]C3=O)=NP(N[C@H]3CCC(=O)[O][Pt-2]4([NH2+]CC[NH2+]4)[O]C3=O)(N[C@H]3CCC(=O)[O][Pt-2]4([NH2+]CC[NH2+]4)[O]C3=O)=NP(N[C@H]3CCC(=O)[O][Pt-2]4([NH2+]CC[NH2+]4)[O]C3=O)(N[C@H]3CCC(=O)[O][Pt-2]4([NH2+]CC[NH2+]4)[O]C3=O)=N2)C(=O)[O][Pt-2]2([NH2+]CC[NH2+]2)[O]1 [Example 13, [NP(L-Glu·Pt(en))2]3]
Increased life span (ILS) ([1]; 30 mg/kg): 277% | Increased life span (ILS) ([1]; 60 mg/kg): Toxic

O=C1[O][Pt-2]2([NH2+]CC[NH2+]2)[O]C(=O)C1NP1(NC2C(=O)[O][Pt-2]3([NH2+]CC[NH2+]3)[O]C2=O)=NP(NC2C(=O)[O][Pt-2]3([NH2+]CC[NH2+]3)[O]C2=O)(NC2C(=O)[O][Pt-2]3([NH2+]CC[NH2+]3)[O]C2=O)=NP(NC2C(=O)[O][Pt-2]3([NH2+]CC[NH2+]3)[O]C2=O)(NC2C(=O)[O][Pt-2]3([NH2+]CC[NH2+]3)[O]C2=O)=N1 (stereo not shown) [Example 18, [NP(Am·Pt(en))2]3]
Increased life span (ILS) ([1]; 30 mg/kg): > 400% | Number of survival after 60 days ([1]; 30 mg/kg): 3/8 | Increased life span (ILS) ([1]; 60 mg/kg): Toxic

[NP(OH)(Glu.Pt(dach)]n [KI-30606, reference compound]
death due to anaphylaxis ([4]; all animals, 30 minutes after injection): died due to anaphylaxis | number of animals with symptom [+++] (death) ([4]; antigen 1 mg/kg, induced antigen 5 mg/kg, 5 animals): 5 | number of animals with symptom [+++] (death) [4, 7]: 4
